Measured values reported in patent US9827275B2, “Immunostimulatory compositions and methods of use thereof” (Comvita New Zealand Ltd., priority 2010, dated 2017).

What was measured:
[1] = system: THP-1 cells; assay: TNF-α release/production from THP-1 cell line; format: cell-based; details: FIG. 8, THP-1 cell line
Description: In this example the ability of three New Zealand honeys to elicit the release of TNF-α from the monocytic cell lines THP-1 and U937 were investigated and the bioactive component responsible identified.
In this example, the effect or otherwise of pure AGP was analysed to determine how AGP influences cytokine stimulation as exemplified by TNF-α production from THP-1 cell line.
Varying doses of LPS were tested against THP-1 cell line and the cytokine response measured. […] The results further reinforce the presence of type II AG compounds and their influence on inflammation.

[2] = system: primed macrophage cells; assay: cytokine TNFα response of primed macrophage cells; format: cell-based; details: added alone to primed macrophage cells
Description: Macrophage cells were then matured to a point where they were primed and ready to respond to an input. Adding varying levels of LPS and measuring the cytokine TNFα response confirmed the maturity and readiness of the macrophage cells.
A variety of different honeys were then added to the primed macrophage cells and the cytokine response measured to determine if there were any trends. ethylglyoxal (MGO) was also added with or without honey to determine if this ingredient of manuka honey also influenced the immune stimulation effects. A sugar solution was also used to determine if this had any effect as well.
Honey samples (5% (w/v) and LPS (1000 ng/mL) were prepared in water and heated at 80° C. for 30 min in a shaking water bath. After heat processing, further dilutions were performed in RPMI medium and the resulting honey tested for cytokine response.

Question: Which pro-inflammatory response [1] does the source give for `CC(=O)C=O` [MGO, methylglyoxal] here?
Answer: The pro-inflammatory response was “no significant pro-inflammatory response”.

Question: And the “impact on immune stimulation (cytokine response)” value [2]?
Answer: The value was “no impact”.
